Laboratory results reported in patent US10188756B2, “Imaging histone deacetylases with a radiotracer using positron emission tomography” (THE GENERAL HOSPITAL CORPORATION, priority 2013, dated 2019).
“Also recorded” adds a separate entry of the source.

How the values were obtained:
HDAC1 = HDAC1 (Homo sapiens (Human), UniProt Q13547); test: HDAC inhibition assay; settings: read-out: IC50 HDAC1
Protocol: (§3) All histone deacetylases were purchased from BPS Bioscience. […] All the other reagents were purchased from Sigma-Aldrich. Caliper EZ reader II system was used to collect all data. […] Purified HDACs were incubated with 2 μM carboxyfluorescein (FAM)-labeled acetylated or trifluoroacetylated peptide substrate (Broad Substrate A and B respectively) and test compound for 60 minutes at room temperature, in HDAC assay buffer that contained 50 mM HEPES (pH 7.4), 100 mM KCl, 0.01% BSA and 0.001% Tween-20. […] Substrate and product were separated electrophoretically and fluorescence intensity in the substrate and product peaks was determined and analyzed by Labchip EZ Reader. The reactions were performed in duplicate for each sample. IC50 values were automatically calculated by Origin 8 using 4 Parameter Logistic Model. The percent inhibition was plotted against the compound concentration, and the IC50 value was determined from the logistic dose-response curve fitting by Origin 8.0 software.

HDAC2 = HDAC2 (Homo sapiens (Human), UniProt Q92769); test: HDAC inhibition assay; type: biochemical
Excerpt: (§1) All histone deacetylases were purchased from BPS Bioscience. […] All the other reagents were purchased from Sigma-Aldrich.

HDAC3 = HDAC3 (Homo sapiens (Human), UniProt O15379); test: HDAC inhibition assay; settings: read-out: IC50 HDAC3
Chain of HDAC3 (O15379 whole entry): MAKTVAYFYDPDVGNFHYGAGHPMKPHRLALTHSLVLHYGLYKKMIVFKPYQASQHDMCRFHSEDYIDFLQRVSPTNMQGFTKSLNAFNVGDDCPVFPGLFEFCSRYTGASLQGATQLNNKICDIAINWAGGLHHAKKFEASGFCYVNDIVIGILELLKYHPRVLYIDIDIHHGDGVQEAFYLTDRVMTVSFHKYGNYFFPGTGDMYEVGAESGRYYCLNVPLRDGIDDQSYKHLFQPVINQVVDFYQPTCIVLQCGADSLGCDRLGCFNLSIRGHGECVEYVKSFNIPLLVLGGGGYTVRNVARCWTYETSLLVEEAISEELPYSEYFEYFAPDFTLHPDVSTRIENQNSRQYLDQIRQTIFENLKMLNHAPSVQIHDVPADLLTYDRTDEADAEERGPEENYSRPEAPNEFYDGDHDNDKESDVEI
Chain of HDAC3 (Q9Y618 395-489 partner): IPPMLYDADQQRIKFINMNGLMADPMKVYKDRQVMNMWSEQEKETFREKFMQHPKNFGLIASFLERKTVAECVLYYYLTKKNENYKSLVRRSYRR
Protocol: as §3

histone deacetylases [1] = test: Rodent PET/CT imaging with [11C]CN133; type: in vivo, rats (Sprague Dawley); settings: for [11C]CN133 uptake in peripheral organs/regions of rats after treatment: peripheral organs (heart wall, kidney cortex, spleen); for blocking of [11C]CN133 uptake in rat brain after pretreatment: whole brain, 5-minute pretreatment
Protocol: Male Sprague-Dawley rats were utilized in pairs, anesthetized with inhalational isoflurane (Forane) at 3% in a carrier of 2 L/min medical oxygen and maintained at 2% isoflurane for the duration of the scan. The rats were arranged head-to-head in a Triumph Trimodality PET/CT/SPECT scanner (Gamma Medica, Northridge, Calif., USA). Rats were injected standard references or vehicle via a lateral tail vein catheterization at the start of PET acquisition. Dynamic PET acquisition lasted for 60 minutes and was followed by computed tomography (CT) for anatomic coregistration. PET data were reconstructed using a 3D-MLEM method resulting in a full width at half-maximum resolution of 1 mm. Reconstructed images were exported from the scanner in DICOM format along with an anatomic CT for rodent studies. These files were imported to PMOD (PMOD Technologies, Ltd.) and manually coregistered using six degrees of freedom.
(§2) Volumes of interest (VOIs) were drawn manually as spheres in brain regions guided by high resolution CT structural images and summed PET data, with a radius no less than 1 mm to minimize partial volume effects. Time-activity curves (TACs) were exported in terms of decay corrected activity per unit volume at specified time points with gradually increasing intervals. The TACs were expressed as percent injected dose per unit volume for analysis.

HDAC7 = HDAC7 (Homo sapiens (Human), UniProt Q8WUI4); test: HDAC inhibition assay; settings: read-out: IC50 HDAC7
Protocol: as §3

HDAC8 = HDAC8 (Homo sapiens (Human), UniProt Q9BY41); test: HDAC inhibition assay; type: biochemical
Excerpt: as §1

HDAC6 = HDAC6 (Homo sapiens (Human), UniProt Q9UBN7); test: HDAC inhibition assay; type: biochemical
Chain of HDAC6 (Q9UBN7 whole entry): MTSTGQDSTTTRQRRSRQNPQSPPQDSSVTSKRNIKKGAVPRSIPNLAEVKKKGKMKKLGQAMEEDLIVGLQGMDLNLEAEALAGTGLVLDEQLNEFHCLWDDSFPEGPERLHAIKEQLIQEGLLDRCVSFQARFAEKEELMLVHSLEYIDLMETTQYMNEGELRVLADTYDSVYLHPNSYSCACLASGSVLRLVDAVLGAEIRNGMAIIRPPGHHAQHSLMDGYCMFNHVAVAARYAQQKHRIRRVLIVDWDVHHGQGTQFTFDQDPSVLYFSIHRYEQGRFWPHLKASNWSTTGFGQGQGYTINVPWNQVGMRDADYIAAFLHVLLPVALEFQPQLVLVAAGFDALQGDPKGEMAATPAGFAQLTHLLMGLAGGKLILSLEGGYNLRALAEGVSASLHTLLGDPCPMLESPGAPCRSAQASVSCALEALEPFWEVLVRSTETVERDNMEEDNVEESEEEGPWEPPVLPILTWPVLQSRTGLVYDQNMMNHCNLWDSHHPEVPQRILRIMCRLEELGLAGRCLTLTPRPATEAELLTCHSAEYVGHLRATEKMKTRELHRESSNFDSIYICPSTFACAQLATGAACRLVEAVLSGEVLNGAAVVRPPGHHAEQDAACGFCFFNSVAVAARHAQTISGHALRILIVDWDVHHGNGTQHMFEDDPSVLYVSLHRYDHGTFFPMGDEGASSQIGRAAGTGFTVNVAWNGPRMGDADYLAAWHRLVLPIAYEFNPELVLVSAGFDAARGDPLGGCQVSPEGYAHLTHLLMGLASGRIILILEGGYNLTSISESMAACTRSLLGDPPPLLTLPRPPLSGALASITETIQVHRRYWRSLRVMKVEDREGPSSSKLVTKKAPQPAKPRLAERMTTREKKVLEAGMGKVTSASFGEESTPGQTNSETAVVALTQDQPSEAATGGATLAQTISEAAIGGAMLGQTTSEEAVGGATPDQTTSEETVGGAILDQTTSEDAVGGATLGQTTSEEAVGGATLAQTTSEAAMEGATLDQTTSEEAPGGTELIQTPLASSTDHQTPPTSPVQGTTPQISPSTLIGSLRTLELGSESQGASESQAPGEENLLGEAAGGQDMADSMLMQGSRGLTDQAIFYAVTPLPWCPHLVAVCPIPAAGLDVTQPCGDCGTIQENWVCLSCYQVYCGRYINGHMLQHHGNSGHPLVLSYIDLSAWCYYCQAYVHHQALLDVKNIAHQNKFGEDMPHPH
Excerpt: as §1

HDAC1 through HDAC9 = test: HDAC inhibition assay, isoform panel; type: biochemical; settings: for IC50 / binding towards HDAC isoforms (in words): HDAC1, HDAC2, HDAC3 and HDAC6
Excerpt: as §1

HDAC4 = HDAC4 (Homo sapiens (Human), UniProt P56524); test: HDAC inhibition assay; settings: read-out: IC50 HDAC4
Chain of HDAC4 (P56524 whole entry, the tested form may be a part): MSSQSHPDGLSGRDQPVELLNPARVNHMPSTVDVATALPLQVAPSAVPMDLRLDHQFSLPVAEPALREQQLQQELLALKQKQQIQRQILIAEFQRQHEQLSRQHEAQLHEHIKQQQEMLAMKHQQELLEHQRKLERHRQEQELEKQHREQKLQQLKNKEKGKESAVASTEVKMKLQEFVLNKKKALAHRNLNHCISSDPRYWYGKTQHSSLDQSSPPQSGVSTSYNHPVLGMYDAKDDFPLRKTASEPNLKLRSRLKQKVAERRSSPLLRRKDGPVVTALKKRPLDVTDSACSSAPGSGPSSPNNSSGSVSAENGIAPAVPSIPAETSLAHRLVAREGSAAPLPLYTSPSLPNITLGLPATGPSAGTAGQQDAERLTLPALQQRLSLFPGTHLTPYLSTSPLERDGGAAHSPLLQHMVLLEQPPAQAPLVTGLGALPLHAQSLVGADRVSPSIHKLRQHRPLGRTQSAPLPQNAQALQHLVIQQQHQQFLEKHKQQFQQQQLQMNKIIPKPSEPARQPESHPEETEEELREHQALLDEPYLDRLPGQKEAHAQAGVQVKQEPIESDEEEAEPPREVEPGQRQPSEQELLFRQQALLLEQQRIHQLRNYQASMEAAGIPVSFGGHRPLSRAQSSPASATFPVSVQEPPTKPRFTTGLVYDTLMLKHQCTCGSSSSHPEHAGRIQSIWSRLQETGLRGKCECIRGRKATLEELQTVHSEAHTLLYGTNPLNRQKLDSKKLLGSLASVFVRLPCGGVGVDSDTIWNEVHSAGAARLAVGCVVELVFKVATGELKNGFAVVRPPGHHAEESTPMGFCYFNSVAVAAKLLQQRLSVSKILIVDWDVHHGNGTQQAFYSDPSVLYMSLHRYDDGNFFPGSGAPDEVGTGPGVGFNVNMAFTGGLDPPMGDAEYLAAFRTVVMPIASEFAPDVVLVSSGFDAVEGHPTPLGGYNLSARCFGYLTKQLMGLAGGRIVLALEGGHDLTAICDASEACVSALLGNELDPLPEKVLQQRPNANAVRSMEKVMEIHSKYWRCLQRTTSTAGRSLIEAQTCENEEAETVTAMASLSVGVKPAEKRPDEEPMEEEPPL
Protocol: as §3

histone deacetylases [2] = test: Baboon PET/MR imaging with [11C]CN133; type: in vivo, baboon (Papio anubis); settings: for changes in vital signs: tracer dose or blocking dose; for blocking of [11C]CN133 uptake in baboon peripheral organs (time-activity curves): heart, spleen, pancreas, CN133 0.5 mg/kg 10-minute pre-treatment, SAHA infusion 5 mg/kg; for VT (Ichese MAI), Baseline / VT (Logan Plot), Baseline: [11C]CN133 distribution volume, t*=35 min to 80 min
Protocol: A female Papio Anubis baboon, deprived of food for 12 hours prior to the study, was administered intramuscular ketamine (10 mg/kg) and intubated. For maintenance of anesthesia throughout the study, the baboon was provided 1%-4% isoflurane (Forane) in a mixture of medical oxygen and nitrogen. The baboon was catheterized antecubitally for radiotracer injection and a radial arterial line was placed for metabolite analysis. MR-PET images were acquired in a BiographmMR scanner (Siemens, Munich, Germany), and PET compatible 8-channel coil arrays for non-human primate brain imaging with a PET resolution of 5 mm and field of view of 59.4 cm and 25.8 cm (transaxial and axial, respectively). Dynamic PET image acquisition was initiated followed by administration of the radiotracer in a homogenous solution of 10% ethanol and 90% isotonic saline. An […] sequence began after 30 minutes of the baseline scan for anatomic coregistration. […] Both scans were carried out in the same animal on the same day, separated by 2.5 hours. In both scans, 4-5 mCi of [^11C]CN133 was administered to the baboon. Dynamic data from the PET scans were recorded in list mode and corrected for attenuation. Baboon data were reconstructed using a 3D-OSEM method resulting in a full width at half-maximum resolution of 4 mm.
as §2, with “MR” for “CT”, “4 mm. A common VOI mask was applied” for “1 mm”, “both baboon scans.” for “minimize partial volume effects.”
Arterial samples collected during imaging from the baboon were centrifuged to obtain plasma, which was then removed and placed in an automated gamma counter that was calibrated to the PET scanner. Metabolite analysis was conducted on a custom automated robot fitted with Phenomenex SPE Strata-X 500 mg solid phase extraction cartridges that were primed with ethanol (2 mL) and deionized water (20 mL). Protein precipitation was achieved by addition of plasma (300 μL) to acetonitrile (300 μL), which was centrifuged for 1 minute to obtain protein-free plasma (PFP). 300 μL of PFP/acetonitrile solution was diluted into deionized water (3 mL), loaded onto the C18 cartridge, and removed of polar metabolites with 100% water. Next, a series of extractions were performed using water and acetonitrile in quantities: 95:5, 90:10, 85:15, 80:20, 70:30, 60:40, 30:70 and 100% acetonitrile at a volume of 4 mL. A control experiment was performed before metabolite analysis to determine the retention of the parent compound by injection of a small amount of [^11C]CN133 onto a test series of extraction cartridges. Each sample was counted in a WIZARD2 Automatic Gamma Counter to determine the presence of radiolabeled metabolites.
CN147 blocks ˜40% of [^11C]CN133 binding in NHP whole brain and in cerebellum. Plasma-normalized data were evaluated by volume of interest analysis (VOI) at the whole brain level and at level of the cerebellum. VOI data were then applied to distribution volume (VT) data analysis by two graphical methods using PMOD software, tabulated in Tables A and B below. Logan Plot and Ichese MAI methods were clarified from previous NHP imaging analyses to provide an accurate VT estimate (+/− standard error) from data beginning 35 min after injection of radiotracer (t*=35 min) until the end of the scan (t=80min).

cell cultures = test: Efficacy in cell cultures; type: cell-based
[3] = Off target binding assays; settings: at 100 times its HDAC IC50
Log D determination = type: physicochemical; settings: octanol / phosphate buffer pH 7.4
Protocol: An aliquot (˜50 μL) of the formulated radiotracer was added to a test tube containing 2.5 mL of octanol and 2.5 mL of phosphate buffer solution (pH 7.4). The test tube was mixed by vortex for 2 minutes and then centrifuged for 2 minutes to fully separate the aqueous and organic phase. A sample taken from the octanol layer (0.1 mL) and the aqueous layer (1.0 mL) was saved for radioactivity measurement. An additional aliquot of the octanol layer (2.0 mL) was carefully transferred to a new test tube containing 0.5 mL of octanol and 2.5 mL of phosphate buffer solution (pH 7.4). The previous procedure (vortex mixing, centrifugation, sampling, and transfer to the next test tube) was repeated until six sets of aliquot samples had been prepared. The radioactivity of each sample was measured in a well counter (Perkin-Elmer, Waltham, Mass.). The log D of each set of samples was derived by the following equation: log D=log (decay-corrected radioactivity in octanol sample×10/decay-corrected radioactivity in phosphate buffer sample).

HDAC5 = HDAC5 (Homo sapiens (Human), UniProt Q9UQL6); test: HDAC inhibition assay; settings: read-out: IC50 HDAC5
Chain of HDAC5 (Q9UQL6 whole entry): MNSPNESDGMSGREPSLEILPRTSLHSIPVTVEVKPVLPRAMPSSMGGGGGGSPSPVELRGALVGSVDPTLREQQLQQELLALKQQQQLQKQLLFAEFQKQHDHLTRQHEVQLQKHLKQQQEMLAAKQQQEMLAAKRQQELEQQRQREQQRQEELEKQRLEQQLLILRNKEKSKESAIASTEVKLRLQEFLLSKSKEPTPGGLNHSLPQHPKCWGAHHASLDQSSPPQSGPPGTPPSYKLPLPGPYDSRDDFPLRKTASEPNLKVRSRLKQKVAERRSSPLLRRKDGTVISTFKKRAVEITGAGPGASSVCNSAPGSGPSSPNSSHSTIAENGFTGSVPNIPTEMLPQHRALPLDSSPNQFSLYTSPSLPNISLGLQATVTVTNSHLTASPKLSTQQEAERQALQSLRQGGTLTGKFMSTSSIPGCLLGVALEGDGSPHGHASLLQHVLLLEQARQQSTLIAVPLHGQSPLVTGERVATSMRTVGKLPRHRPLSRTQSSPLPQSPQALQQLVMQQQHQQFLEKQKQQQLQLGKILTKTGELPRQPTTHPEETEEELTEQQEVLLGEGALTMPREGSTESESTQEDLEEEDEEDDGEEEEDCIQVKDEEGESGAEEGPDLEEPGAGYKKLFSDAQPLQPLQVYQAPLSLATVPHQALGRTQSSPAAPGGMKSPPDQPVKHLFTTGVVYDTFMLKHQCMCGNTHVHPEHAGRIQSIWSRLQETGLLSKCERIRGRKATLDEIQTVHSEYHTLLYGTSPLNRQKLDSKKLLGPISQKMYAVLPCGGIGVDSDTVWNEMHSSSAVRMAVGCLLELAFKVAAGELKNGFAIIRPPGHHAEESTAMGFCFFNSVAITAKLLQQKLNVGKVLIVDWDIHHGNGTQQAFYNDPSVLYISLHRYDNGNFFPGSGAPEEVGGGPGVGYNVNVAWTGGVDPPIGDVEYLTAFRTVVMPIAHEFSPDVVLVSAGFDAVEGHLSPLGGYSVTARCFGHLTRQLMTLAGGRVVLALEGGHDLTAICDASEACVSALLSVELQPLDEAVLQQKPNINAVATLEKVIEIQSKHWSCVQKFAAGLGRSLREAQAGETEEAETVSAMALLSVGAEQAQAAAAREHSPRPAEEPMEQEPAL
Protocol: as §3

HDAC9 = HDAC9 (Homo sapiens (Human), UniProt Q9UKV0); test: HDAC inhibition assay; settings: read-out: IC50 HDAC9
Protocol: as §3

[4] = Plasma protein binding assay, baboon plasma; type: in vitro ADME; settings: method derives % unbound, read-out: plasma protein binding (PPB) (converted)
Protocol: An aliquot of radiotracer in saline (10 μL) was added to a sample of baboon plasma (0.8 mL, pooled from two separate animals). The mixture was gently mixed by repeated inversion and incubated for 10 minutes at room temperature. Following incubation a small sample (20 μL) was removed to determine the total radioactivity in the plasma sample (AT; AT=Abound+Aunbound). An additional 0.2 mL of the plasma sample was placed in the upper compartment of a Centrifree tube (Amicon, Inc., Beverly, Mass., USA) and then centrifuged for 10 minutes. The upper part of the Centrifree tube was discarded, and an aliquot (20 μL) from the bottom part of the tube was removed to determine the amount of radioactivity that passed through the membrane (Aunbound). Plasma protein binding was derived by the following equation: % unbound=Aunbound×100/AT.

[5] = Plasma protein binding assay, human plasma; type: in vitro ADME; settings: method derives % unbound, read-out: plasma protein binding (PPB) (converted)

Chain of HDAC1 (Q13547 whole entry): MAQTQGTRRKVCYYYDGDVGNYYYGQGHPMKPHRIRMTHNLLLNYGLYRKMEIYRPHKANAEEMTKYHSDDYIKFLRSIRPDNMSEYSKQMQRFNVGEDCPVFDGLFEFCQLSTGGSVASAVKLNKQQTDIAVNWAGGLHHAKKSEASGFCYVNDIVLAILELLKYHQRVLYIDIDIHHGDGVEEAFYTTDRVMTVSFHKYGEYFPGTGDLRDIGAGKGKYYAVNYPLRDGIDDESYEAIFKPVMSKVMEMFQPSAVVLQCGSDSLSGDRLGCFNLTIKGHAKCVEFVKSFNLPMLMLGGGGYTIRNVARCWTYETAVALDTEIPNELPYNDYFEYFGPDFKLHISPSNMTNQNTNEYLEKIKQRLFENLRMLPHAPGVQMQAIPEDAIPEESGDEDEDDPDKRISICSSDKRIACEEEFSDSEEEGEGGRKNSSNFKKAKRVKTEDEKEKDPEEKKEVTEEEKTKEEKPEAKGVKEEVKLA
Chain of HDAC2 (Q92769 whole entry): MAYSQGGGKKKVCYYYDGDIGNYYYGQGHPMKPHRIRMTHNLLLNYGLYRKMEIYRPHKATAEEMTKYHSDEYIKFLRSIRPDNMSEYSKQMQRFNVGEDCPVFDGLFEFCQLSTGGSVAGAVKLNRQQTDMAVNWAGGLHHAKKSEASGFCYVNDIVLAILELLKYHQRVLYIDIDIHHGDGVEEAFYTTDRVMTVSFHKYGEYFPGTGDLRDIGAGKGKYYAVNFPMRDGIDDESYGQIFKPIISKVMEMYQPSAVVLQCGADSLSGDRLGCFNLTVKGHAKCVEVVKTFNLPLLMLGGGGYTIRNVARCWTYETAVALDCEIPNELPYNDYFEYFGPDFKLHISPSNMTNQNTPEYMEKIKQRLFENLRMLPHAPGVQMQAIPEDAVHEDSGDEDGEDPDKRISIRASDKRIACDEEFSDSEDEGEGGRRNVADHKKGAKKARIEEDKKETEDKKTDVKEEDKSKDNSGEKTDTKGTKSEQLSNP

SMILES: O=C(NO)c1ccc(C2=Nc3ccccc3Oc3ccccc32)cc1 [CN54]
- IC50 (HDAC1): 56.1 nM
- IC50 (HDAC2): 53.7 nM
- IC50 (HDAC3): 7.1 nM
- [11C]CN133 uptake in peripheral organs/regions of rats after treatment (histone deacetylases [1]): decreased uptake
- blocking of [11C]CN133 uptake in rat brain after pretreatment (histone deacetylases [1]): blocked; also recorded: activity blocking

SMILES: CN(Cc1ccc(/C=C/C(=O)NO)cc1)CC12CC3CC(CC(C3)C1)C2 [CN133, (E)-3-(4-((((3r,5r,7r)-adamantan-1-ylmethyl)(methyl)amino)methyl)phenyl)-N-hydroxyacrylamide]
- IC50 (HDAC1): 0.3 nM
- IC50 (HDAC7): > 20000 nM
- IC50 (HDAC8): > 15000 nM
- IC50 (HDAC6): 4.1 nM
- IC50 / binding towards HDAC isoforms (in words) (HDAC1 through HDAC9): low nanomolar; also recorded: sub-nanomolar
- selectivity over each of the other HDAC isoforms (HDAC1 through HDAC9; HDAC1-3 and HDAC6 versus other isoforms): greater than 100 fold
- IC50 (HDAC4): 1970 nM
- changes in vital signs (histone deacetylases [2]; baboon): did not notice any significant changes
- blocking of [11C]CN133 uptake in baboon peripheral organs (time-activity curves) (histone deacetylases [2]; kidney): significant blocking
- blocking of [11C]CN133 uptake in baboon brain (histone deacetylases [2]; intravenous, CN133 0.01-1.0 mg/kg, CN147 0.5 mg/kg): reduced the regional radioactivity uptake
- IC50 (HDAC3): 0.6 nM
- efficacy in cell cultures (cell cultures): sub-nanomolar
- P-glycoprotein interaction (CsA pretreatment study) (histone deacetylases [1]; 30-minute pretreatment of CsA 25 mg/kg): not a Pgp inhibitor
- reversibility of binding (histone deacetylases [1]; CN133 1.0 mg/kg i.v. 20 minutes into baseline scan with [11C]CN133): reversible inhibitor; also recorded: rapid washout of radioactivity from brain regions
- [11C]CN133 uptake in peripheral organs/regions of rats after treatment (histone deacetylases [1]): decreased
- off target binding [3]: minimal (if any) off target binding
- partition coefficient (Log D) (Log D determination): 2.03
- IC50 (HDAC5): 352 nM
- IC50 (HDAC9): > 15000 nM

SMILES: O=C(CCCCCCC(=O)Nc1ccccc1)NO [SAHA, suberanilohydroxamic acid, reference compound]
- blocking of [11C]CN133 uptake in baboon peripheral organs (time-activity curves) (histone deacetylases [2]; kidney): significant blocking
- [11C]CN133 uptake in peripheral organs/regions of rats after treatment (histone deacetylases [1]): decreased uptake
- blocking of [11C]CN133 uptake in rat brain after pretreatment (histone deacetylases [1]): no significant change; also recorded: did not block the brain uptake

SMILES: [11CH3]N(Cc1ccc(/C=C/C(=O)NO)cc1)CC12CC3CCC(CC(C3)C1)C2 [[11C]CN133]
- IC50 / binding towards HDAC isoforms (in words) (HDAC1 through HDAC9): sub-nanomolar
- VT (Ichese MAI), Baseline (histone deacetylases [2]; Cerebellum VOI): 19.45 ± 7.5
- VT (Logan Plot), Baseline (histone deacetylases [2]; Cerebellum VOI): 19.28 ± 3.18
- VT (Ichese MAI), Baseline (histone deacetylases [2]; Whole Brain VOI): 14.65 ± 8.48
- VT (Logan Plot), Baseline (histone deacetylases [2]; Whole Brain VOI): 14.46 ± 3.83
- time of peak radioactivity in the brain after injection (histone deacetylases [2]; baboon): about 1 minute
- tracer uptake in peripheral organs (histone deacetylases [2]; baboon heart, kidney, pancreas and spleen): good uptake
- changes in vital signs (histone deacetylases [2]; baboon): did not notice any significant changes
- BBB penetration (histone deacetylases [1]; rats, intravenous, 60 minutes scan): high BBB penetration
- blocking of [11C]CN133 uptake in rat brain after pretreatment (histone deacetylases [1]): dose-dependent blocking
- logD (Log D determination; read-out: partition coefficient (Log D)): 2.03
- fraction unbound at 10 min [4]: 0.986
- fraction unbound at 10 min [5]: 0.945
